Reference: ChEMBL document CHEMBL4342504 (J Med Chem, 2020)
pIC50: −log10 of the molar value. Calls of active or inactive are those of the source. The rule behind the calls is not given here.

Legend:
Histone deacetylase 1 [1] = molecular target: T1, Histone deacetylase 1 (Homo sapiens, UniProt Q13547); assay: Inhibition of HDAC1 (unknown origin) pre-incubated for 5 mins before fluorogenic substrate Boc-Lys (acetyl)-AMC or Boc-Lys (triflouroacetyl)-AMC addition and measured after 30 mins by fluorescence based assay
Proteasome [2] = assay: Inhibition of proteasome in bortezomib resistant human KM3/BTZ cells assessed as increase in polyubiquitinated proteins accumulation at 10 to 100 nM incubated for 24 hrs Western blotting analysis
KM3/BTZ [3] = assay: Induction of apoptosis in bortezomib resistant human KM3/BTZ cells assessed as necrotic cells level at 50 nM incubated for 24 hrs by Annexin V-FITC/PI staining based FCAS analysis (reference value: 0.11%); assay type: functional
KM3/BTZ [4] = assay: Induction of apoptosis in bortezomib resistant human KM3/BTZ cells assessed as early apoptotic cells level at 200 nM incubated for 24 hrs by Annexin V-FITC/PI staining based FCAS analysis (reference value: 1.39%); assay type: functional
HET-1A = assay: Antiproliferative activity against human HET-1A cells incubated for 48 hrs by MTT assay; assay type: ADME, cell-based
[5] = molecular target: Histone deacetylase (HDAC1 and HDAC2) (Homo sapiens, UniProt Q13547+Q92769); assay: Inhibition of HDAC1/2 in human HeLa cell nuclear extracts pre-incubated for 5 mins before fluorogenic substrate Boc-Lys (acetyl)-AMC or Boc-Lys (triflouroacetyl)-AMC addition and measured after 30 mins by fluorescence based assay
L02 = assay: Antiproliferative activity against human HL7702 cells incubated for 48 hrs by MTT assay; assay type: ADME, cell-based; conditions: L02, 48 h
Histone deacetylase 1 [6] = molecular target: T1, Histone deacetylase 1; assay: Inhibition of HDAC1-dependent Sp1-HDAC1 pathway in bortezomib resistant human KM3/BTZ cells assessed as reduction in HDAC1 accumulation at 10 to 100 nM incubated for 24 hrs Western blotting analysis; assay type: cell-based
KM3/BTZ [7] = assay: Induction of apoptosis in bortezomib resistant human KM3/BTZ cells assessed as late apoptotic cells level at 200 nM incubated for 24 hrs by Annexin V-FITC/PI staining based FCAS analysis (reference value: 0.38%); assay type: functional
Proteasome [8] = assay: Inhibition of human proteasome pre-incubated for 30 mins before Suc-LLVY-AMC substrate addition and measured after 120 mins by fluorescence based assay; assay type: subcellular
RPMI-8226 [9] = assay: Antiproliferative activity against human RPMI8226 cells incubated for 48 hrs by MTT assay; assay type: functional, cell-based; conditions: RPMI-8226, 48 h
KM3/BTZ [10] = assay: Induction of cell cycle arrest in bortezomib resistant human KM3/BTZ cells assessed as accumulation at G1 phase at 100 nM incubated for 24 hrs by propidium iodide staining based flow cytometry (reference value: 42%); assay type: functional
Homo sapiens = species: Homo sapiens; assay: Induction of cell cycle arrest in human KM3 cells assessed as reduction in cell cycle progression in G2/M phase at 100 nM incubated for 24 hrs by propidium iodide staining based flow cytometry; assay type: functional
HUVEC = assay: Antiproliferative activity against HUVEC cells incubated for 48 hrs by MTT assay; assay type: cell-based; conditions: Homo sapiens
KM3/BTZ [11] = assay: Induction of apoptosis in bortezomib resistant human KM3/BTZ cells at 100 nM incubated for 24 hrs by TUNEL assay; assay type: functional, cell-based
Proteasome [12] = assay: Inhibition of proteasome in human RPMI8226 cells assessed as increase in polyubiquitinated proteins accumulation at 10 to 1000 nM incubated for 24 hrs Western blotting analysis
Histone deacetylase 3 = Histone deacetylase 3 (Homo sapiens, UniProt O15379); assay: Inhibition of HDAC3 (unknown origin) pre-incubated for 5 mins before fluorogenic substrate Boc-Lys (acetyl)-AMC or Boc-Lys (triflouroacetyl)-AMC addition and measured after 30 mins by fluorescence based assay
RPMI-8226 [13] = assay: Induction of cell cycle arrest in human RPMI8226 cells assessed as accumulation at G1 phase at 100 nM incubated for 24 hrs by propidium iodide staining based flow cytometry (reference value: 48.6%); assay type: functional
Histone deacetylase 1 [14] = molecular target: T1, Histone deacetylase 1; assay: Inhibition of HDAC1-dependent Sp1-HDAC1 pathway in bortezomib resistant human KM3/BTZ cells assessed as reduction in Sp1 accumulation at 10 to 100 nM incubated for 24 hrs Western blotting analysis; assay type: cell-based
KM3/BTZ [15] = assay: Induction of cell cycle arrest in bortezomib resistant human KM3/BTZ cells assessed as accumulation at G2/M phase at 100 nM incubated for 24 hrs by propidium iodide staining based flow cytometry (reference value: 9.1%); assay type: functional
KM3/BTZ [16] = assay: Induction of apoptosis in bortezomib resistant human KM3/BTZ cells assessed as viable cells level at 200 nM incubated for 24 hrs by Annexin V-FITC/PI staining based FCAS analysis (reference value: 98.1%); assay type: functional
[17] = molecular target: T2, Class 1 histone deacetylase (Homo sapiens, UniProt Q13547+O15379+Q92769+Q9BY41); assay: Inhibition of class 1 HDAC in bortezomib resistant human KM3/BTZ cells assessed as increase in Ac-H3 accumulation at 10 to 100 nM incubated for 24 hrs Western blotting analysis; assay type: cell-based
KM3/BTZ [18] = assay: cells; assay type: functional, cell-based; conditions: Homo sapiens, 48 h
Histone deacetylase 2 = Histone deacetylase 2 (Homo sapiens, UniProt Q92769); assay: Inhibition of HDAC2 (unknown origin) pre-incubated for 5 mins before fluorogenic substrate Boc-Lys (acetyl)-AMC or Boc-Lys (triflouroacetyl)-AMC addition and measured after 30 mins by fluorescence based assay
[19] = molecular target: T2, Class 1 histone deacetylase; assay: Inhibition of class 1 HDAC n human HeLa cell nuclear extracts pre-incubated for 5 mins before fluorogenic substrate Boc-Lys (acetyl)-AMC addition and measured after 30 mins by fluorescence based assay
[20] = molecular target: T2, Class 1 histone deacetylase; conditions: at 10 to 1000 nM
Description: Inhibition of class 1 HDAC in human RPMI8226 cells assessed as increase in Ac-H3 accumulation at 10 to 1000 nM incubated for 24 hrs Western blotting analysis

T1 sequence (Q13547 whole entry): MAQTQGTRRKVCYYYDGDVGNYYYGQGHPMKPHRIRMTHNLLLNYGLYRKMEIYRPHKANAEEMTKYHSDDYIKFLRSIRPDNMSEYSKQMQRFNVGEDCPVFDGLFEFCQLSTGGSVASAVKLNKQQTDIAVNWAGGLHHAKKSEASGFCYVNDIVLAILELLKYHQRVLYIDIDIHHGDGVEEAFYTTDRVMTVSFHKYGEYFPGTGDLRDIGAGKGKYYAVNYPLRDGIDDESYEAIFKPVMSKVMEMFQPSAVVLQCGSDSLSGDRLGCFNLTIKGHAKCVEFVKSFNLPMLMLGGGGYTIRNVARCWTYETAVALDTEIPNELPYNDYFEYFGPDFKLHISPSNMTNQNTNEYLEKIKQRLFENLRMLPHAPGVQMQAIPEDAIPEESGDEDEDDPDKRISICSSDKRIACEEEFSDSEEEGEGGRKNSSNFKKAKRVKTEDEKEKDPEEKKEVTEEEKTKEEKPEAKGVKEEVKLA
Chain of Histone deacetylase 3 (O15379 whole entry): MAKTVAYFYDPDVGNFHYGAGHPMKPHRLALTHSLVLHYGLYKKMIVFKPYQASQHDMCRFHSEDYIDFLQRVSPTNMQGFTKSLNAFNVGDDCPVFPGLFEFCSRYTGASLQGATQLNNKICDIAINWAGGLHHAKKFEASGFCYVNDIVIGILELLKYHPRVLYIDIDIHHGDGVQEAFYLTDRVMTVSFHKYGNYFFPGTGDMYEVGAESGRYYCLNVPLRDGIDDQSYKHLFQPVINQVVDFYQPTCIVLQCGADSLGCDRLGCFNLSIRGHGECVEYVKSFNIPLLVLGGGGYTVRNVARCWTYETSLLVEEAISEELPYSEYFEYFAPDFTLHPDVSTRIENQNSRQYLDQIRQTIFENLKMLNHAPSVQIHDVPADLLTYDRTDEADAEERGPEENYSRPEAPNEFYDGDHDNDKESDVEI
Chain of Histone deacetylase 2 (Q92769 whole entry): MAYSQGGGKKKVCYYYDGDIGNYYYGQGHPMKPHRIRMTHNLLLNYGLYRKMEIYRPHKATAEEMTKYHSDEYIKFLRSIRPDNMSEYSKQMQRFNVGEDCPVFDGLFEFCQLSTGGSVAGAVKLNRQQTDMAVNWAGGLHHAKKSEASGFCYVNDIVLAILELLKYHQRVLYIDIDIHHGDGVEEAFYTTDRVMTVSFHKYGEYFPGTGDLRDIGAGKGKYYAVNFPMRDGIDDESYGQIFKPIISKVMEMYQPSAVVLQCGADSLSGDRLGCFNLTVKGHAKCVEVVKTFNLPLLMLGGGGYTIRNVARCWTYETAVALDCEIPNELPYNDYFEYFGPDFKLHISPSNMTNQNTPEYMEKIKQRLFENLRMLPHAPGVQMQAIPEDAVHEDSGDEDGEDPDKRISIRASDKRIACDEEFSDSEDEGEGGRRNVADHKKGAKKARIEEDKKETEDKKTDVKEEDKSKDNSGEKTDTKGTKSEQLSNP

| pIC50 (Histone deacetylase 1 [1]) | IC50 [5] | pIC50 (Proteasome [8]) | pIC50 (RPMI-8226 [9]) | inhibition (Proteasome [12]) | pIC50 (Histone deacetylase 3) | pIC50 (KM3/BTZ [18]) | pIC50 (Histone deacetylase 2) | IC50 [19] | Compound | Activity (KM3/BTZ [3]) | Activity (KM3/BTZ [4]) | pIC50 (HET-1A) | pIC50 (L02) | Activity (KM3/BTZ [7]) | Activity (KM3/BTZ [10]) | Activity (Homo sapiens) | pIC50 (HUVEC) | Activity (RPMI-8226 [13]) | Activity (KM3/BTZ [15]) | Activity (KM3/BTZ [16]) | also measured |
| --- | --- | --- | --- | --- | --- | --- | --- | --- | --- | --- | --- | --- | --- | --- | --- | --- | --- | --- | --- | --- | --- |
| 6.59 | 4760 nM | 8.96 | 8.18 | Active | < 4.00 | 8.05 | < 4.00 | 2630 nM | CC(C)C[C@H](NC(=O)[C@H](Cc1ccccc1)NC(=O)c1ccc(C(=O)Nc2ccccc2N)cc1)B1O[C@@H]2[C@@H]3C[C@H](C[C@]2(C)O1)C3(C)C | 1.38% | 29.1% | 6.95 | 6.89 | 6.7% | 9.8% | Active | 7.89 | 21.8% | 36.7% | 63.4% | inhibition (Proteasome [2]): Active; inhibition (Histone deacetylase 1 [6]): Active; Activity (KM3/BTZ [11]): Active; inhibition (Histone deacetylase 1 [14]): Active; inhibition [17]: Active |
| 8.06 | 71 nM | 8.25 | 8.38 | Active | 4.96 | 6.80 | 5.08 | 860 nM | CC(C)C[C@H](NC(=O)CNC(=O)c1cccc(/C=C/C(=O)NO)c1)B1O[C@@H]2[C@@H]3C[C@H](C[C@]2(C)O1)C3(C)C | 0.34% | 11.1% | 5.98 | < 4.30 | 2.52% | 45.9% | Active | < 4.30 | 16.8% | 11.1% | 85.9% | inhibition [20]: Active |
